pIC50: −log10 of the molar value.
Tests used:
[1] = Clearance in cynomolgus monkey at 1 mg/kg, iv; assay type: ADME, organism-based, Macaca fascicularis; parameters: dose 1 mg/kg, route intravenous; settings: in vivo
[2] = Oral bioavailability in dog at 1 mg/kg, po; assay type: ADME, organism-based, Canis lupus familiaris; settings: in vivo
[3] = target: Cytochrome P450 3A4 (Homo sapiens, UniProt P08684); assay: Inhibition of liver CYP3A4; assay type: ADME, tissue-based
[4] = target: T1, Cytochrome P450 1A2 (Homo sapiens, UniProt P05177); assay: Inhibition of liver CYP1A2; assay type: ADME, tissue-based
T1 sequence (P05177 whole entry): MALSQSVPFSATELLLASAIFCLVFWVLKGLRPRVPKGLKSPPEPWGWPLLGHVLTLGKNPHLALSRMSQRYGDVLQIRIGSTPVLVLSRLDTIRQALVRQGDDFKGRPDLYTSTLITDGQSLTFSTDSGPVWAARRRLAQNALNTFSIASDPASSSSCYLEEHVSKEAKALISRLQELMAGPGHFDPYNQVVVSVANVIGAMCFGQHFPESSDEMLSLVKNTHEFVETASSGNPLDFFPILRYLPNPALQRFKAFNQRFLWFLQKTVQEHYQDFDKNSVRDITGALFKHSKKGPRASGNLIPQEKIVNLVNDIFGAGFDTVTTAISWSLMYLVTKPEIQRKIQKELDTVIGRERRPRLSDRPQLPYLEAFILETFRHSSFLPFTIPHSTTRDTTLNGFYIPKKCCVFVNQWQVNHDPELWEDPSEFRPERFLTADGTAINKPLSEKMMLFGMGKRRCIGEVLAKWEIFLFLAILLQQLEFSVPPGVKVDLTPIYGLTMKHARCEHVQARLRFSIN

[5] = target: C-C chemokine receptor type 5 (Homo sapiens, UniProt P51681); assay: Displacement of [125I]RANTES from human CCR5 receptor co-transfected with Galphai6 in CHO cells; assay type: cell-based
[6] = target: Cytochrome P450 2D6 (Homo sapiens, UniProt P10635); assay: Inhibition of liver CYP2D6; assay type: ADME, tissue-based
[7] = target: T2, C-C chemokine receptor type 3 (Homo sapiens, UniProt P51677); assay: Binding affinity to human CCR3 receptor
T2 sequence (P51677 whole entry): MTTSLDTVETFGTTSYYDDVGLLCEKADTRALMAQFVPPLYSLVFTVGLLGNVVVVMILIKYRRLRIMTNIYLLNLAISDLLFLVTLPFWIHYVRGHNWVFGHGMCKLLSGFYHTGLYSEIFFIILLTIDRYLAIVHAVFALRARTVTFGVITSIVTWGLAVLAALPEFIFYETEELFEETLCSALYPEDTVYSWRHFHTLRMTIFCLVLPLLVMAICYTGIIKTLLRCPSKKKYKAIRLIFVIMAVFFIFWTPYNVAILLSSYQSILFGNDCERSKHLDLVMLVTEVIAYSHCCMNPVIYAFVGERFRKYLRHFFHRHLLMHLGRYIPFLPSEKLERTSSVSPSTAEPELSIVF

[8] = target: T3, C-C chemokine receptor type 1 (Homo sapiens, UniProt P32246); assay: Binding affinity to human CCR1 receptor
T3 sequence (P32246 whole entry): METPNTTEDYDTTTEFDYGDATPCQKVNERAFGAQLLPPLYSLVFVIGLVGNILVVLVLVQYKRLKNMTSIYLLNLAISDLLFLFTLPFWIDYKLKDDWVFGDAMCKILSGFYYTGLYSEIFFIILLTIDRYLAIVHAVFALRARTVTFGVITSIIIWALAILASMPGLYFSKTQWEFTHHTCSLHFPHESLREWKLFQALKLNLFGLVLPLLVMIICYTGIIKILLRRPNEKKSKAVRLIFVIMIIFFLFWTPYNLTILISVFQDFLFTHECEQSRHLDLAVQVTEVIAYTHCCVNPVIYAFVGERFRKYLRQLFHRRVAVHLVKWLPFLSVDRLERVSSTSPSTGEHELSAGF

[9] = Fraction unbound in dog plasma; assay type: ADME, cell-free, Canis lupus familiaris
[10] = Fraction unbound in monkey plasma; assay type: ADME, cell-free, Macaca mulatta; settings: rhesus monkey
[11] = target: hERG (KCNH2) (Homo sapiens, UniProt Q12809); assay: (§1) Inhibition of human ERG; settings: human
[12] = target: Voltage-gated inwardly rectifying potassium channel KCNH2 (Homo sapiens, UniProt Q12809); assay: as §1
[13] = AUC in rat at 1 mg/kg, po; assay type: ADME, organism-based; parameters: dose 1 mg/kg, route oral; settings: plasma
[14] = Volume of distribution at steady state in cynomolgus monkey at 1 mg/kg, iv; assay type: ADME, organism-based, Macaca fascicularis; parameters: dose 1 mg/kg, route intravenous; settings: in vivo, read-out: Vdss
[15] = Cmax in cynomolgus monkey at 1 mg/kg, po; assay type: ADME, organism-based, Macaca fascicularis; parameters: dose 1 mg/kg, route oral; settings: in vivo
[16] = Volume of distribution at steady state in dog at 1 mg/kg, iv; assay type: ADME, organism-based, Canis lupus familiaris; parameters: dose 1 mg/kg, route intravenous; settings: in vivo, read-out: Vdss
[17] = Half life in dog at 1 mg/kg, iv; assay type: ADME, organism-based, Canis lupus familiaris; parameters: dose 1 mg/kg, route intravenous; settings: in vivo
[18] = target: Cytochrome P450 2C9 (Homo sapiens, UniProt P11712); assay: Inhibition of liver CYP2C9; assay type: ADME, tissue-based
[19] = tested on: Human immunodeficiency virus 1; assay: Antiviral activity against recombinant HIV1 virus infected in human JC53BL cells after 3 days; assay type: functional, organism-based; settings: Human immunodeficiency virus 1, JC53BL, 72 h
[20] = target: T4, C-C chemokine receptor type 4 (Homo sapiens, UniProt P51679); assay: Binding affinity to human CCR4 receptor
T4 sequence (P51679 whole entry): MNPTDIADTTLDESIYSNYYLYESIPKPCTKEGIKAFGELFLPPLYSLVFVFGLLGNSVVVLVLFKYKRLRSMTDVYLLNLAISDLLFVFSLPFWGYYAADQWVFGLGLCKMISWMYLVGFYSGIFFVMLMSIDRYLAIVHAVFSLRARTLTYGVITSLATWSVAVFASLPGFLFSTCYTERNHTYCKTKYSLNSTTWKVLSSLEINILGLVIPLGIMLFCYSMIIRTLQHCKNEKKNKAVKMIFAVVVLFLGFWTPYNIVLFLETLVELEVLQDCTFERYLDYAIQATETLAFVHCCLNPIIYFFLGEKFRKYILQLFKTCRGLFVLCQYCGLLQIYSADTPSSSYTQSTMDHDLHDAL

[21] = AUC in cynomolgus monkey at 1 mg/kg, po; assay type: ADME, organism-based, Macaca fascicularis; parameters: dose 1 mg/kg, route oral; settings: plasma
[22] = tested on: Human immunodeficiency virus; assay: Antiviral activity against R5-tropic HIV Ba-L infected in human PBMC cells assessed as inhibition of viral replication; assay type: functional, organism-based; settings: Human immunodeficiency virus 1, Ba-L
[23] = Intrinsic clearance in human liver microsomes assessed per mg of protein; assay type: ADME, Microsome; settings: liver microsomes
[24] = Oral bioavailability in rat at 1 mg/kg, po; assay type: ADME, organism-based; settings: in vivo
[25] = Fraction unbound in rat plasma; assay type: ADME, cell-free
[26] = Half life in cynomolgus monkey at 1 mg/kg, iv; assay type: ADME, organism-based, Macaca fascicularis; parameters: dose 1 mg/kg, route intravenous; settings: in vivo
[27] = Oral bioavailability in cynomolgus monkey at 1 mg/kg, po; assay type: ADME, organism-based, Macaca fascicularis; settings: in vivo
[28] = Half life in rat at 1 mg/kg, iv; assay type: ADME, organism-based; parameters: dose 1 mg/kg, route intravenous; settings: in vivo
[29] = Volume of distribution at steady state in rat at 1 mg/kg, iv; assay type: ADME, organism-based; parameters: dose 1 mg/kg, route intravenous; settings: in vivo, read-out: Vdss
[30] = target: Cytochrome P450 2C19 (Homo sapiens, UniProt P33261); assay: Inhibition of liver CYP2C19; assay type: ADME, tissue-based
[31] = target: C-X-C chemokine receptor type 4 (Homo sapiens, UniProt P61073); assay: Binding affinity to human CXCR4
[32] = Cmax in rat at 1 mg/kg, po; assay type: ADME, organism-based; parameters: dose 1 mg/kg, route oral; settings: in vivo
[33] = target: T5, C-C chemokine receptor type 6 (Homo sapiens, UniProt P51684); assay: Binding affinity to human CCR6 receptor
T5 sequence (P51684 whole entry): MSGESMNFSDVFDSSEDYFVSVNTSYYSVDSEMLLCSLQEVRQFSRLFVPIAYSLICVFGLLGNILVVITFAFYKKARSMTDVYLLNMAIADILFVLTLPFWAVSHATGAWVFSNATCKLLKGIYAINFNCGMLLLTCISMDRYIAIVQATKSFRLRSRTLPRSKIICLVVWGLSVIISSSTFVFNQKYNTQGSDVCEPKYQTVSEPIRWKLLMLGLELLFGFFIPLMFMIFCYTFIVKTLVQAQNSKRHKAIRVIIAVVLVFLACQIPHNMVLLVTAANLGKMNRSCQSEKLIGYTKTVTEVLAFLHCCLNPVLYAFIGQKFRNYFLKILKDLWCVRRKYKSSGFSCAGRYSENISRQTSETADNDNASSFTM

[34] = AUC in dog at 1 mg/kg, po; assay type: ADME, organism-based, Canis lupus familiaris; parameters: dose 1 mg/kg, route oral; settings: plasma
[35] = Clearance in rat at 1 mg/kg, iv; assay type: ADME, organism-based; parameters: dose 1 mg/kg, route intravenous; settings: in vivo
[36] = Cmax in dog at 1 mg/kg, po; assay type: ADME, organism-based, Canis lupus familiaris; parameters: dose 1 mg/kg, route oral; settings: in vivo
[37] = tested on: Canis familiaris; assay: Clearance in dog at 1 mg/kg, iv; assay type: ADME, organism-based, Canis lupus familiaris; parameters: dose 1 mg/kg, route intravenous; settings: in vivo
[38] = target: C-C chemokine receptor type 2 (Homo sapiens, UniProt P41597); assay: Binding affinity to human CCR2b receptor
C-C chemokine receptor type 2, sequence (P41597 whole entry): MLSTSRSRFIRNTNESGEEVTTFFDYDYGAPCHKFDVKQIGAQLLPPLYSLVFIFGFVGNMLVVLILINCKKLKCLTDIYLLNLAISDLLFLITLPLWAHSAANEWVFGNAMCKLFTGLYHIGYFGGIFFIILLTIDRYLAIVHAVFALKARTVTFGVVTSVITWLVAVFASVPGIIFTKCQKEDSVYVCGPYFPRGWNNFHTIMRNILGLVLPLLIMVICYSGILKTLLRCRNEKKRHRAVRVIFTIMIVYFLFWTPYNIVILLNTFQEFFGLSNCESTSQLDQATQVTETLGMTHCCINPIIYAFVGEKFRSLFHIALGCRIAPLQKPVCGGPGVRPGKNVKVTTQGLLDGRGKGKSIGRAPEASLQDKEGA

Voltage-gated inwardly rectifying potassium channel KCNH2, sequence (Q12809 whole entry): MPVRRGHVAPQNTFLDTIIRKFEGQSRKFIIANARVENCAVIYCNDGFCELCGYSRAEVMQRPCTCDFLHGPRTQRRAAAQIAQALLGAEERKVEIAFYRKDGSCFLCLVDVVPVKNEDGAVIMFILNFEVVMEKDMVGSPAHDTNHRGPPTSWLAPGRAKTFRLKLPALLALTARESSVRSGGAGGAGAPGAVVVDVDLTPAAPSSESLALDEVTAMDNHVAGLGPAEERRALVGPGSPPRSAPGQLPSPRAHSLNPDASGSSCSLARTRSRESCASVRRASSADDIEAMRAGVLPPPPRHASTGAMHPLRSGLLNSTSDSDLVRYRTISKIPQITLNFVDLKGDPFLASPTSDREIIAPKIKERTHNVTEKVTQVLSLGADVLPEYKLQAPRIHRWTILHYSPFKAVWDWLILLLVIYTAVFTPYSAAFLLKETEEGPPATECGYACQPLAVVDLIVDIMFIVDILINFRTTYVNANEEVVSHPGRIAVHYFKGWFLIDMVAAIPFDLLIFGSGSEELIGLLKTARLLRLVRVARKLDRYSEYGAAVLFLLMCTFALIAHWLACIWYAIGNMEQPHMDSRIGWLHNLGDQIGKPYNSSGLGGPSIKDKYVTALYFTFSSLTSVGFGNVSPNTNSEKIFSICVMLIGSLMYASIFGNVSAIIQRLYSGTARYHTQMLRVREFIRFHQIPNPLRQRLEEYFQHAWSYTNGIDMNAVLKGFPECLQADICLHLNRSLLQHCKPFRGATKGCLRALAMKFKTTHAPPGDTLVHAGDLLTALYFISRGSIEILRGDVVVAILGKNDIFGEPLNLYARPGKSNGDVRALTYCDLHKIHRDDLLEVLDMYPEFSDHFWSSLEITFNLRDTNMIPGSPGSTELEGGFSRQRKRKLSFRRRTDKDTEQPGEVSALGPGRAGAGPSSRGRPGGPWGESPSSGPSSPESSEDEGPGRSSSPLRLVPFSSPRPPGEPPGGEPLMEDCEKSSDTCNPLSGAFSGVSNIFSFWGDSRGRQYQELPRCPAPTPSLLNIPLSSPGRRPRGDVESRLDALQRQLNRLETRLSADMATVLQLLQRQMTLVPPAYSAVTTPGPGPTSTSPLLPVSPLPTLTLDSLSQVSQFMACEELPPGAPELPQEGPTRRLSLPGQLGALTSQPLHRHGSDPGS
hERG (KCNH2), sequence (Q12809 whole entry): as above
Cytochrome P450 2D6, sequence (P10635 whole entry): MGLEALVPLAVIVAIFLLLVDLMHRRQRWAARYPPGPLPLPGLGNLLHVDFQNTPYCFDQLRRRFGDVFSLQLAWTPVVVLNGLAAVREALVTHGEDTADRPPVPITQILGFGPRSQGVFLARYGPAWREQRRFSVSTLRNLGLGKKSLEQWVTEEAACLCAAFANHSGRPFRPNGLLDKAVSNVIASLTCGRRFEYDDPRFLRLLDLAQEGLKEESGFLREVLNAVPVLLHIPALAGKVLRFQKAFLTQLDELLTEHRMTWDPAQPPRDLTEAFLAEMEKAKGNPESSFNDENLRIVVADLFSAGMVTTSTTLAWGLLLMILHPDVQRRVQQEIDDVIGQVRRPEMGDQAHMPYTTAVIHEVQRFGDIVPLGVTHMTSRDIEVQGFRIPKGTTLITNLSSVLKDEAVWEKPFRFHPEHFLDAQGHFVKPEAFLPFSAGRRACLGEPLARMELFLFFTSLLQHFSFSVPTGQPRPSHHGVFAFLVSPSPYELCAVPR
Cytochrome P450 2C9, sequence (P11712 whole entry): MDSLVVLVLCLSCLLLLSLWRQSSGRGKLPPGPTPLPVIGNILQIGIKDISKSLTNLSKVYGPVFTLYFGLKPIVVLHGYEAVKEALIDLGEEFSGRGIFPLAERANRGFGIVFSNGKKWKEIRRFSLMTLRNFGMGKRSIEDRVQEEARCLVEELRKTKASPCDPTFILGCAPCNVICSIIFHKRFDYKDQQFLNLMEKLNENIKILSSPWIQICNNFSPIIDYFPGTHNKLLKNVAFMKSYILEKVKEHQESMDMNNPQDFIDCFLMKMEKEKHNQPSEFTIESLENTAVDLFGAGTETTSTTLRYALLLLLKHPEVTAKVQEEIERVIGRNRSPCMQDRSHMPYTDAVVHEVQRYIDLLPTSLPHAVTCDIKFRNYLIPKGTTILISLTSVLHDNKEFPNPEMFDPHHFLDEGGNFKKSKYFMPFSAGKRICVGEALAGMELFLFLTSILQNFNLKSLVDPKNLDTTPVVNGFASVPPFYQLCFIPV
Cytochrome P450 3A4, sequence (P08684 whole entry): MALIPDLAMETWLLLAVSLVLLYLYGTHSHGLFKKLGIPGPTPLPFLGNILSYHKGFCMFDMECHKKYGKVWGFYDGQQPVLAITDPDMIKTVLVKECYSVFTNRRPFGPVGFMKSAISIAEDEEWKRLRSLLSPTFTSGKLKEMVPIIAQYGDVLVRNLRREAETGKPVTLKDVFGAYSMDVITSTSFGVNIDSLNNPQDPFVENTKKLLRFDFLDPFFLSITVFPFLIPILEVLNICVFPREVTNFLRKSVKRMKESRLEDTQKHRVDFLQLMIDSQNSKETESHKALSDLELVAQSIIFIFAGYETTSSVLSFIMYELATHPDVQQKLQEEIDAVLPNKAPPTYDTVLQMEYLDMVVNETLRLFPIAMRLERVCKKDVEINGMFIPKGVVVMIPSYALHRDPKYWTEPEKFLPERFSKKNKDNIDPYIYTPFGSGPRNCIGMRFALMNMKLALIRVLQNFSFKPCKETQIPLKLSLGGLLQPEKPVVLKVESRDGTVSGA
C-X-C chemokine receptor type 4, sequence (P61073 whole entry): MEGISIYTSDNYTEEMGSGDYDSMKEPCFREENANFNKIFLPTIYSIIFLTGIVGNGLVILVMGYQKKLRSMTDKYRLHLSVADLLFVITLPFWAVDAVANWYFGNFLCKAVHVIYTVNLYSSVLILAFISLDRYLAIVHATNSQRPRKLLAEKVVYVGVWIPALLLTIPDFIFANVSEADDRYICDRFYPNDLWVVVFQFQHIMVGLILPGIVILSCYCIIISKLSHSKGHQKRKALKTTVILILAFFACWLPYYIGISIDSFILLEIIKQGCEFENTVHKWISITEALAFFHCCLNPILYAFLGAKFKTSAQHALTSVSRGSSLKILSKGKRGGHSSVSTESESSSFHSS
Cytochrome P450 2C19, sequence (P33261 whole entry): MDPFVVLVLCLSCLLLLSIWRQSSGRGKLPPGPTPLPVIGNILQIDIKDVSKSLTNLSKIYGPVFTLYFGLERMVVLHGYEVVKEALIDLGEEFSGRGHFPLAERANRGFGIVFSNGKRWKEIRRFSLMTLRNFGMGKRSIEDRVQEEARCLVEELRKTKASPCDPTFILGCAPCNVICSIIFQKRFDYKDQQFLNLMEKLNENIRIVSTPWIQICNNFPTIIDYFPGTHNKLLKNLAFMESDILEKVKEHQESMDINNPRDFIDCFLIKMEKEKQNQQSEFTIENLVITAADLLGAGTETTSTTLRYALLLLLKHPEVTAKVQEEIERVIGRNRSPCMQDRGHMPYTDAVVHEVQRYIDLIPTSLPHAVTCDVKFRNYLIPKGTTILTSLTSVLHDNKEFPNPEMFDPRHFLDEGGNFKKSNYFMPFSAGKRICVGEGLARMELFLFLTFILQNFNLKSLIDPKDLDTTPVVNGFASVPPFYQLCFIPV

In the case of `CCCC[C@H]1CN(CC2CCOCC2)C(=O)OC12CCN(C1(C)CCN(C(=O)c3c(C)ncnc3C)CC1)CC2`, the clearance [1] was 19 mL/min/kg, the bioavailability [2] was 85% and the Activity [3] was “Not Active”. For the same compound, the Activity [4] was “Not Active”, the pIC50 [5] was 7.60 and the Activity [6] was “Not Active”. For the same compound, the pIC50 [7] was under 4.30, the pIC50 [8] was under 4.30 and the fraction unbound [9] was 0.13. The fraction unbound [10] was 0.04, the IC20 [11] was 2.9 µM and the pIC50 [12] was 4.92. The AUC [13] was 54 ng·h/mL, the Vd [14] was 3 L/kg and the Cmax [15] was 42 ng/mL. The Vd [16] was 3.2 L/kg, the half-life [17] was 2.9 h and the Activity [18] was “Not Active”. For the same compound, the pIC50 [19] was 8.22, the pIC50 [20] was under 4.30 and the AUC [21] was 396 ng·h/mL. It also gave a pIC50 [22] of 9.74, a microsomal CLint [23] of 12 µL/min/mg and a bioavailability [24] of 10%. The fraction unbound [25] was 0.32, the half-life [26] was 3.5 h and the bioavailability [27] was 42%. For the same compound, the half-life [28] was 1.4 h, the Vd [29] was 3.8 L/kg and the Activity [30] was “Not Active”. It also gave a pIC50 [31] of under 4.30, a Cmax [32] of 13 ng/mL and a pIC50 [33] of under 4.30. For the same compound, the AUC [34] was 700 ng·h/mL, the clearance [35] was 52 mL/min/kg and the Cmax [36] was 225 ng/mL. It also gave a clearance [37] of 20 mL/min/kg and a pIC50 [38] of under 4.30.
